Data as given in patent publication US20230150951A1, “2,5- OR 2,6-DISUBSTITUTED HYDROQUINONE DERIVATIVES WITH AT LEAST ONE CARBOXY, SULFO OR AMIDO GROUP USEFUL AS MEDICAMENTS” (OM PHARMA SA, priority 2020, published 2023).

Experiments:
Assay type in all cases: cell-based
VEGFR-2 = target: T1, VEGFR-2 (Homo sapiens, UniProt P35968); assay: VEGF-165 induced phosphorylation of VEGF-Receptor on HUVEC; conditions: HUVEC preincubated 60 min, VEGF165 25 ng/mL 2 min; read-out: VEGFR-Phosphorylation inhibition IC50
T1 construct: endogenous in cells; host or cells: primary HUVEC
T1 sequence (P35968 20-1356): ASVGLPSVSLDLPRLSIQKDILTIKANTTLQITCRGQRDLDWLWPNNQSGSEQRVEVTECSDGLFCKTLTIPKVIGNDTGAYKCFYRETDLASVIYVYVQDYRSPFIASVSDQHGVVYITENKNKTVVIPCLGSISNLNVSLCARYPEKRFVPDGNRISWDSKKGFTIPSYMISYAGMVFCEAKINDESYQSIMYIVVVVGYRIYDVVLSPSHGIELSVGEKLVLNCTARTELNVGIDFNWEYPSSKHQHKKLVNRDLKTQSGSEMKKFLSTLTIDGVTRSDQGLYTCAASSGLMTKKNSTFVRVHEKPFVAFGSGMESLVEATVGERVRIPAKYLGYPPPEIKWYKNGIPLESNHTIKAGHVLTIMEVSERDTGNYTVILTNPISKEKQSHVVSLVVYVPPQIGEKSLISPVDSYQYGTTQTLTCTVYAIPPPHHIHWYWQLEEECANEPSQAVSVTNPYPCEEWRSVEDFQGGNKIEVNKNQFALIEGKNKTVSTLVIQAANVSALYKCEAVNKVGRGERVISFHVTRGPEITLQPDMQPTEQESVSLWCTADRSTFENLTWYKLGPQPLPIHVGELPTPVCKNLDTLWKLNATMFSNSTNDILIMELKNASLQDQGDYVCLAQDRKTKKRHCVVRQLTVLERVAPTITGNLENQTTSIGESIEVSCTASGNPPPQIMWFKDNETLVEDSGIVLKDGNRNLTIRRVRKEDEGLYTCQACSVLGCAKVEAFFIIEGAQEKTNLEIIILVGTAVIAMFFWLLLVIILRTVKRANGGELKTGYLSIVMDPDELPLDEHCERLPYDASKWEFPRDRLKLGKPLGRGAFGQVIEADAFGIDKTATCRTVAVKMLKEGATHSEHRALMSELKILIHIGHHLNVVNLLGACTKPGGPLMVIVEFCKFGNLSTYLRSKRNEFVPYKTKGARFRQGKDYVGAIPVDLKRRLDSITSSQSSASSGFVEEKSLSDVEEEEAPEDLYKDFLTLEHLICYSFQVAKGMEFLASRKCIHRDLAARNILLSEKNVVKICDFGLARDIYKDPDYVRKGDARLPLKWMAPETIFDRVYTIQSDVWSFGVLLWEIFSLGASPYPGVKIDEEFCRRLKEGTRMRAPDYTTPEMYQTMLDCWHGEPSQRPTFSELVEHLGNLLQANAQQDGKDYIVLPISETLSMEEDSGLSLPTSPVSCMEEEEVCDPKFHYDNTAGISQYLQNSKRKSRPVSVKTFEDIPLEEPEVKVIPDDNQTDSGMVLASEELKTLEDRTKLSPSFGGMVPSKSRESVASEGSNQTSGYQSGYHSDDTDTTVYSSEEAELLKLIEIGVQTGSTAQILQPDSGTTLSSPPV

FGF-1 = target: T2, FGF-1 (Homo sapiens, UniProt P05230); assay: FGF-1 induced sprouting of HUVEC, spheroid-based cellular angiogenesis assay; conditions: FGF-1 25 ng/mL preincubated with compound, 24 h
T2 construct: purchased Peprotech 100-17A
T2 sequence (P05230 whole entry): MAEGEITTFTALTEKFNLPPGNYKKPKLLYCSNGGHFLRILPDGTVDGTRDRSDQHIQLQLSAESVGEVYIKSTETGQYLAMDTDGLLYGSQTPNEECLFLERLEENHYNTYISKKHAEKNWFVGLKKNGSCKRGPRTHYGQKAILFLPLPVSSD
How it was run: (§1)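 Compound (final 100 down to 1.56×10^−6 M) was mixed with growth factor (final 25 ng/mL) for 30 min at 37°C, then added onto collagen-embedded 400-cell HUVEC spheroids.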

VEGF-A = target: T3, VEGF-A (Homo sapiens, UniProt P15692); assay: VEGF-A induced sprouting of HUVEC, spheroid-based cellular angiogenesis assay; conditions: VEGF-A 25 ng/mL preincubated with compound, 24 h, read-out: VEGF-A1 IC50
T3 construct: purchased ProQinase GmbH
T3 sequence (P15692 27-191 isoform P15692-4): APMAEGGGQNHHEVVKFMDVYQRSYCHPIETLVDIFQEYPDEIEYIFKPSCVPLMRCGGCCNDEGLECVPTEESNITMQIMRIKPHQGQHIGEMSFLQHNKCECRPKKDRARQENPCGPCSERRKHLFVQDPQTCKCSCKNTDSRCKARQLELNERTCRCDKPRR
How it was run: as §1

Structure (SMILES): O=C(O)Cc1cc(O)c(C(=O)Nc2ccccc2-c2nnn[nH]2)cc1O [IIIa-001aTz]
- IC50 (VEGFR-2): 0.71 µM
- IC50 (FGF-1): 51 µM
- IC50 (VEGF-A): 12 µM

Structure (SMILES): O=C(O)Cc1cc(O)c(C(=O)Nc2c(C(=O)O)cccc2C(=O)O)cc1O [IIIa-013a, 2-(4-(carboxymethyl)-2,5-dihydroxybenzamido)isophthalic acid]
- IC50 (VEGFR-2): 1.3 µM
- IC50 (FGF-1): 17 µM
- IC50 (VEGF-A): 43 µM

Structure (SMILES): CC(=O)N(Cc1cc(O)c(C(=O)O)cc1O)Cc1cc(O)c(C(=O)O)cc1O [IIIc-057a, N,N-Bis(4-carboxy-2,5-dihydroxyphenylmethyl)acetamide]
- IC50 (VEGFR-2): 0.2 µM
- IC50 (FGF-1): 87 µM
- IC50 (VEGF-A): 38 µM

Structure (SMILES): O=C(O)c1cc(O)c(CN(Cc2cc(O)c(C(=O)O)cc2O)Cc2cc(O)c(C(=O)O)cc2O)cc1O [IIIc-061a, Tris(4-carboxy-2,5-dihydroxyphenylmethyl)amine]
- IC50 (VEGFR-2): 4.3 µM
- IC50 (VEGF-A): 21 µM

Structure (SMILES): O=C(O)c1ccccc1CNC(=O)c1cc(O)cc(C(=O)O)c1O [IIa-053a, 3-(2-Carboxyphenylmethylaminocarbonyl)-2,5-dihydroxybenzoic acid]
- IC50 (VEGFR-2): 0.27 µM
- IC50 (FGF-1): 84 µM
- IC50 (VEGF-A): 37 µM

Structure (SMILES): O=C(O)c1cc(NC(=O)c2cc(O)cc(C(=O)Nc3ccc(O)c(C(=O)O)c3)c2O)ccc1O [IIc-007a, 5-(3-(3-carboxy-4-hydroxyphenylaminocarbonyl)-2,5-dihydroxybenzamido)-2-hydroxy benzoic acid]
- IC50 (VEGFR-2): 0.44 µM
- IC50 (FGF-1): 11 µM

Structure (SMILES): O=C(O)c1cc(O)ccc1NC(=O)c1cc(O)cc(C(=O)Nc2ccc(O)cc2C(=O)O)c1O [IIc-009a, 2-(3-(2-carboxy-4-hydroxyphenylaminocarbonyl)-2,5-dihydroxybenzamido)-5-hydroxyl benzoic acid]
- IC50 (VEGFR-2): 1.7 µM
- IC50 (FGF-1): 30 µM
- IC50 (VEGF-A): 182 µM

Structure (SMILES): O=C(O)c1cc(O)cc(CSCc2cc(O)cc(C(=O)O)c2O)c1O [IVc-058a, 3-((2,5-Dihydroxy-3-carboxyphenyl)methylthiomethyl)-2,5-dihydroxybenzoic acid]
- IC50 (VEGFR-2): 0.53 µM
- IC50 (FGF-1): 36 µM
- IC50 (VEGF-A): 83 µM

Structure (SMILES): O=C(O)c1cc(O)cc(CS(=O)(=O)Cc2cc(O)cc(C(=O)O)c2O)c1O [IVc-059a, 3-((2,5-Dihydroxy-3-carboxyphenyl)methylsulfonylmethyl)-2,5-dihydroxybenzoic acid]
- IC50 (VEGFR-2): 4.8 µM
- IC50 (FGF-1): 6.7 µM
- IC50 (VEGF-A): 12 µM

Structure (SMILES): COC(=O)c1cc(OC(C)=O)cc(CS(=O)(=O)Cc2cc(OC(C)=O)cc(C(=O)OC)c2OC(C)=O)c1OC(C)=O [IVc-059a-E2-A4]
- IC50 (FGF-1): 54 µM
- IC50 (VEGF-A): 25 µM

Structure (SMILES): O=C(O)c1cc(O)c(C(=O)Nc2ccccc2C(=O)O)cc1O [Ia-001a, 4-(2-carboxyphenylaminocarbonyl)-2,5-dihydroxybenzoic acid]
- IC50 (VEGFR-2): 2.25 µM
- IC50 (FGF-1): 41 µM
- IC50 (VEGF-A): 7.3 µM

Structure (SMILES): O=C(O)c1cc(O)c(C(=O)Nc2ccccc2-c2nnn[nH]2)cc1O [Ia-001a-Tz, 4-(2-(1H-tetrazol-5-yl)phenyl-aminocarbonyl)-2,5-dihydroxybenzoic acid]
- IC50 (VEGFR-2): 0.23 µM
- IC50 (FGF-1): 6.2 µM
- IC50 (VEGF-A): 17 µM

Structure (SMILES): O=C(O)c1cc(O)c(C(=O)Nc2ccccc2S(=O)(=O)O)cc1O [Ia-001c, 2,5-dihydroxy-4-(2-sulfophenylaminocarbonyl)benzoic acid]
- IC50 (VEGFR-2): 3.31 µM
- IC50 (FGF-1): 21 µM
- IC50 (VEGF-A): ≥ 100 µM

Structure (SMILES): O=C(O)c1cc(O)c(C(=O)Nc2ccc(-c3nnn[nH]3)cc2)cc1O [Ia-003a-Tz, 4-(4-(1H-tetrazol-5-yl)phenyl-aminocarbonyl)-2,5-dihydroxybenzoic acid]
- IC50 (VEGFR-2): 6.4 µM
- IC50 (FGF-1): 6.7 µM
- IC50 (VEGF-A): 13 µM

Structure (SMILES): O=C(O)c1cc(NC(=O)c2cc(O)c(C(=O)O)cc2O)cc(C(=O)O)c1 [Ia-015a, 5-(4-carboxy-2,5-dihydroxybenzamido)isophthalic acid]
- IC50 (VEGFR-2): 0.15 µM
- IC50 (FGF-1): 20 µM
- IC50 (VEGF-A): 19 µM

Structure (SMILES): O=C(O)c1cc(NC(=O)c2cc(O)c(C(=O)O)cc2O)cc(NC(=O)c2cc(O)c(C(=O)O)cc2O)c1 [Ib-010a, 3,5-bis(2,5-dihydroxy-4-carboxybenzoylamino)benzoic acid]
- IC50 (VEGFR-2): 1.6 µM
- IC50 (FGF-1): 14 µM
- IC50 (VEGF-A): 15 µM

Structure (SMILES): CCOC(=O)c1cc(NC(=O)c2cc(O)c(C(=O)OCC)cc2O)cc(NC(=O)c2cc(O)c(C(=O)OCC)cc2O)c1 [Ib-010a-E3, ethyl 3,5-bis(2,5-dihydroxy-4-ethoxycarbonylbenzoylamino)benzoate]
- IC50 (VEGFR-2): 0.09 µM
- IC50 (FGF-1): 26 µM

Structure (SMILES): O=C(O)c1cc(NC(=O)c2cc(O)c(C(=O)Nc3ccccc3-c3nnn[nH]3)cc2O)ccc1O [Ic-001a-Tz/004a, 5-(4-(2-(1H-tetrazol-5-yl)phenylaminocarbonyl)-2,5-dihydroxybenzamido)-2-hydroxy benzoic acid]
- IC50 (VEGFR-2): 2.6 µM
- IC50 (FGF-1): 19 µM
- IC50 (VEGF-A): 25 µM

Structure (SMILES): O=C(Nc1ccccc1-c1nnn[nH]1)c1cc(O)c(C(=O)Nc2ccccc2-c2nnn[nH]2)cc1O [Ic-001aTz2, N1,N4-bis(2-(1H-tetrazol-5-yl)phenyl)-2,5-dihydroxyterephthalamide]
- IC50 (VEGFR-2): 2.2 µM
- IC50 (FGF-1): ≥ 200 µM
- IC50 (VEGF-A): 45 µM

Structure (SMILES): O=C(O)c1cc(NC(=O)c2cc(O)c(C(=O)Nc3ccc(O)c(C(=O)O)c3)cc2O)ccc1O [Ic-007a, 5-(4-(3-carboxy-4-hydroxyphenylaminocarbonyl)-2,5-dihydroxybenzamido)-2-hydroxy benzoic acid]
- IC50 (VEGFR-2): 0.09 µM
- IC50 (FGF-1): 13 µM
- IC50 (VEGF-A): 3.2 µM
